≈ marks a conversion by molar mass, not a printed value. Read-outs that look alike come from different tables or passages of the source. Non-standard residues stand in square brackets, D forms with d. Residues, ends and D or L forms follow the SMILES beside them. *: point of attachment. Lys(Me) = CNCCCC[C@H](N)C(=O)O; Octanoyl = CCCCCCCC(=O)*
Experiments:
[1] = tested on: S. aureus ATCC 29213; assay type: cell-based, Staphylococcus aureus; settings: ATCC 29213, 18 h
Experimental: (§1) The in vitro antibacterial activity of the UTBLPs was assessed against wild-type and clinically isolated bacterial strains. To obtain the MIC of the compounds, the microbroth dilution susceptibility assay was performed according to the Clinical and Laboratory Standards Institute (CLSI, Wayne, PA, USA) guidelines and as previously described. Briefly, the compounds at varying concentrations were incubated with bacterial inoculum (5 × 10^5 CFU/mL final concentration) at 37 °C for 18 h. Growth in the form of turbidity was confirmed using an EMax Plus microplate reader (Molecular Devices, San Jose, CA, USA) at 590 nm.

[2] = tested on: MRSA ATCC 33592; assay type: cell-based, Staphylococcus aureus; settings: ATCC 33592, 18 h
Experimental: as §1

[3] = tested on: E. coli ATCC 25922; assay type: cell-based, Escherichia coli; settings: ATCC 25922, 18 h
Experimental: as §1

[4] = tested on: E. faecalis ATCC 29212; assay type: cell-based, Enterococcus faecalis
In short: (§2)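 Checkerboard synergy assay: antibiotic and OMP combined at varying concentrations with 5 × 10^5 CFU/mL inoculum (final), 37 °C, 18 h; growth read as turbidity at 590 nm. FICI = sum of FICs (MIC in combination / MIC alone); ≤0.5 synergistic, 0.5–4 additive, >4 antagonistic.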

[5] = tested on: K. pneumoniae 113250; test: microbe, parasite or virus in culture; assay type: cell-based, Klebsiella pneumoniae; settings: 113250, 18 h
In short: (§3)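 Minimum inhibitory concentration came from a CLSI broth dilution assay: 18 h at 37 °C, inoculum 5 × 10^5 CFU/mL final.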

[6] = tested on: E. coli 94393; assay type: cell-based, Escherichia coli; settings: for MICUTBLP: UTBLP alone
In short: as §2

[7] = tested on: E. coli 94474; assay type: cell-based, Escherichia coli; settings: for MICUTBLP: UTBLP alone
In short: as §2

[8] = tested on: E. coli ATCC 25922; assay type: cell-based, Escherichia coli; settings: for MICUTBLP: UTBLP alone
In short: as §2

[9] = tested on: A. baumannii ATCC 17978; assay type: cell-based, Acinetobacter baumannii; settings: ATCC 17978, 18 h
Experimental: as §1

[10] = tested on: MSSE 81388; assay type: cell-based, Staphylococcus epidermidis; settings: 18 h
Experimental: as §1

[11] = tested on: MRSE 61589; assay type: cell-based, Staphylococcus epidermidis; settings: 61589, 18 h
Experimental: as §1

[12] = tested on: E. coli 94393; test: microbe, parasite or virus in culture; assay type: cell-based, Escherichia coli; settings: 94393, 18 h
In short: as §3

[13] = tested on: E. coli 94474; test: microbe, parasite or virus in culture; assay type: cell-based, Escherichia coli; settings: 94474, 18 h
In short: as §3

[14] = tested on: A. baumannii AB027; assay type: cell-based, Acinetobacter baumannii; settings: for MICUTBLP: UTBLP alone
In short: as §2

[15] = tested on: A. baumannii 92247; assay type: cell-based, Acinetobacter baumannii; settings: for MICUTBLP: UTBLP alone
In short: as §2

[16] = tested on: E. faecium ATCC 27270; assay type: cell-based, Enterococcus faecium
In short: as §2

[17] = UTBLP alone, plate with chloramphenicol
[18] = UTBLP in combination with chloramphenicol
[19] = chloramphenicol in combination with the UTBLP
[20] = UTBLP in combination with novobiocin
[21] = UTBLP in combination with rifampicin
[22] = novobiocin in combination with the UTBLP
[23] = rifampicin in combination with the UTBLP

In the case of `CCCCCCCC(=O)NCCCC[C@H](NC(=O)CCCCCCC)C(=O)N[C@@H](CCCCNC)C(=O)N[C@@H](CCCCNC)C(=O)N[C@@H](CCCCNC)C(=O)N[C@@H](CCCCNC)C(N)=O` [UTBLP 6] (Octanoyl-K(Octanoyl)[Lys(Me)][Lys(Me)][Lys(Me)][Lys(Me)]-NH2), the MIC [1] was 128 µg/mL (≈ 132 µM), the MIC [2] was over 128 µg/mL and the MIC [3] was 32 µg/mL (≈ 33.1 µM). The Interpretation ([4]; UTBLP + chloramphenicol) was “Additive (0.5 < x ≤ 4 is additive)”, the MICUTBLP [4, 17] was 32 µg/mL and the “MICUTBLP [MICcombo]” value [4, 18] was 4 µg/mL. The “MICchloramphenicol [MICcombo]” value [4, 19] was 4 µg/mL, the MIC [5] was over 128 µg/mL and the Interpretation ([6]; UTBLP + novobiocin) was “Synergy (FICI ≤ 0.5 is synergistic)”. The Interpretation ([6]; UTBLP + rifampicin) was “Synergy (FICI ≤ 0.5 is synergistic)”, the MICUTBLP ([6]; plate with novobiocin) was 64 µg/mL and the MICUTBLP ([6]; plate with rifampicin) was 64 µg/mL. For the same molecule, the “MICUTBLP [MICcombo]” value [6, 20] was 4 µg/mL, the “MICUTBLP [MICcombo]” value [6, 21] was 4 µg/mL and the “MICantibiotic [MICcombo]” value [6, 22] was 1 µg/mL. For the same molecule, the “MICantibiotic [MICcombo]” value [6, 23] was 0.25 µg/mL, the Interpretation ([7]; UTBLP + novobiocin) was “Synergy (FICI ≤ 0.5 is synergistic)” and the Interpretation ([7]; UTBLP + rifampicin) was “Synergy (FICI ≤ 0.5 is synergistic)”. The MICUTBLP ([7]; plate with novobiocin) was over 128 µg/mL, the MICUTBLP ([7]; plate with rifampicin) was over 128 µg/mL and the “MICUTBLP [MICcombo]” value [7, 20] was 16 µg/mL. The “MICUTBLP [MICcombo]” value [7, 21] was 16 µg/mL, the “MICantibiotic [MICcombo]” value [7, 22] was 1 µg/mL and the “MICantibiotic [MICcombo]” value [7, 23] was 0.125 µg/mL. For the same molecule, the Interpretation ([8]; UTBLP + chloramphenicol) was “Synergy (FICI ≤ 0.5 is synergistic)”, the Interpretation ([8]; UTBLP + niclosamide) was “Synergy (FICI ≤ 0.5 is synergistic)” and the Interpretation ([8]; UTBLP + novobiocin) was “Synergy (FICI ≤ 0.5 is synergistic)”. For the same molecule, the Interpretation ([8]; UTBLP + rifampicin) was “Synergy (FICI ≤ 0.5 is synergistic)”, the MICUTBLP ([8]; plate with chloramphenicol) was 32 µg/mL and the MICUTBLP ([8]; plate with niclosamide) was 32 µg/mL. The MICUTBLP ([8]; plate with novobiocin) was 32 µg/mL, the MICUTBLP ([8]; plate with rifampicin) was 32 µg/mL and the “MICUTBLP [MICcombo]” value [8, 18] was 8 µg/mL. For the same molecule, the “MICUTBLP [MICcombo]” value ([8]; UTBLP in combination with niclosamide) was 1 µg/mL, the “MICUTBLP [MICcombo]” value [8, 20] was 2 µg/mL and the “MICUTBLP [MICcombo]” value [8, 21] was 4 µg/mL. The “MICantibiotic [MICcombo]” value [8, 19] was 2 µg/mL, the “MICantibiotic [MICcombo]” value ([8]; niclosamide in combination with the UTBLP) was 2 µg/mL and the “MICantibiotic [MICcombo]” value [8, 22] was 0.5 µg/mL. The “MICantibiotic [MICcombo]” value [8, 23] was 0.063 µg/mL, the MIC [9] was 64 µg/mL (≈ 66.2 µM) and the MIC [10] was 16 µg/mL (≈ 16.6 µM). The MIC [11] was 16 µg/mL (≈ 16.6 µM), the MIC [12] was 64 µg/mL (≈ 66.2 µM) and the MIC [13] was over 128 µg/mL. For the same molecule, the Interpretation ([14]; UTBLP + novobiocin) was “Synergy (FICI ≤ 0.5 is synergistic)”, the Interpretation ([14]; UTBLP + rifampicin) was “Synergy (FICI ≤ 0.5 is synergistic)” and the MICUTBLP ([14]; plate with novobiocin) was over 128 µg/mL. For the same molecule, the MICUTBLP ([14]; plate with rifampicin) was over 128 µg/mL, the “MICUTBLP [MICcombo]” value [14, 20] was 16 µg/mL and the “MICUTBLP [MICcombo]” value [14, 21] was 16 µg/mL. The “MICantibiotic [MICcombo]” value [14, 22] was 0.031 µg/mL, the “MICantibiotic [MICcombo]” value [14, 23] was 0.002 µg/mL and the Interpretation ([15]; UTBLP + novobiocin) was “Synergy (FICI ≤ 0.5 is synergistic)”. For the same molecule, the Interpretation ([15]; UTBLP + rifampicin) was “Synergy (FICI ≤ 0.5 is synergistic)”, the MICUTBLP ([15]; plate with novobiocin) was 32 µg/mL and the MICUTBLP ([15]; plate with rifampicin) was 32 µg/mL. For the same molecule, the “MICUTBLP [MICcombo]” value [15, 20] was 1 µg/mL, the “MICUTBLP [MICcombo]” value [15, 21] was 0.5 µg/mL and the “MICantibiotic [MICcombo]” value [15, 22] was 0.125 µg/mL. For the same molecule, the “MICantibiotic [MICcombo]” value [15, 23] was 0.063 µg/mL, the Interpretation ([16]; UTBLP + chloramphenicol) was “Additive (0.5 < x ≤ 4 is additive)” and the MICUTBLP [16, 17] was 64 µg/mL. For the same molecule, the “MICUTBLP [MICcombo]” value [16, 18] was 4 µg/mL and the “MICchloramphenicol [MICcombo]” value [16, 19] was 4 µg/mL.
